In patent publication US20190327975A1, “AN ANTIMICROBIAL COMPOSITION” (Conopco, Inc., d/b/a UNILEVER, priority 2016, published 2019):

Excerpt: More particularly, silver ion solubility [Ag+], a value given in mol/L may be calculated using the formula: […]

## [Cl][Ag] [Silver chloride]
  Silver Ion Solubility [Ag+]: 13 µM
